For assay [1] the following is noted: rat; cited from earlier work.
For assay [2] the following is noted: rat model; cited from earlier work.
The conditions of assay [3]: cited from earlier work.
Assay [4] addresses T1, human orexin-1 receptor (Homo sapiens, UniProt O43613).
T1 construct: expressed in transfected cells; host or cells: Chinese hamster ovary (CHO) cells, grown under G418 selection
T1 sequence (O43613 1-425): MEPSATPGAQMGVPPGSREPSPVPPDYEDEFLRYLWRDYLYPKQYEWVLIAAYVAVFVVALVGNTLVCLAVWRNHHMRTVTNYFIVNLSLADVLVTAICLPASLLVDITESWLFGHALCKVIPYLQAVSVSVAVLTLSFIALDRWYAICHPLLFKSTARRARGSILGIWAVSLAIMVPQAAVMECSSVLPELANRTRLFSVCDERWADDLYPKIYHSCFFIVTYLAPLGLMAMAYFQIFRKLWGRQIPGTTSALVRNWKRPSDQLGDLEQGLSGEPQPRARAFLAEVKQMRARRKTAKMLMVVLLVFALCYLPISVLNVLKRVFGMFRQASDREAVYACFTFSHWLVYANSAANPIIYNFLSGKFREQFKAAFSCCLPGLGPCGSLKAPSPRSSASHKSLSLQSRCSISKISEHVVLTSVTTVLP
Kind of assay: FLIPR calcium assay, orexin receptor antagonistic activity, CHO cells expressing the human orexin-1 receptor. Format: cell-based. The settings on record: 3 nM orexin-A as agonist, some values geometric mean of n = 2 or 3, read-out: OX1 IC50. How it is done:
(§1) The orexin receptor antagonistic activity of the compounds of formula (I) is determined in accordance with the following experimental method.
(§2) Chinese hamster ovary (CHO) cells expressing the human orexin-1 receptor and the human orexin-2 receptor, respectively, are grown in culture medium (Ham F-12 with L-Glutamine) containing 300 μg/ml G418, 100 U/ml penicillin, 100 μg/ml streptomycin and 10% heat inactivated fetal calf serum (FCS). The cells are seeded at 20,000 cells/well into 384-well black clear bottom sterile plates (Greiner). The seeded plates are incubated overnight at 37° C. in 5% CO2. Human orexin-A as an agonist is prepared as 1 mM stock solution in MeOH:water (1:1), diluted in HBSS containing 0.1% bovine serum albumin (BSA), NaHCO3: 0.375 g/l and 20 mM HEPES for use in the assay at a final concentration of 3 nM.
(§3) Antagonists are prepared as 10 mM stock solution in DMSO, then diluted in 384-well plates using DMSO followed by a transfer of the dilutions into in HBSS containing 0.1% bovine serum albumin (BSA), NaHCO3: 0.375 g/l and 20 mM HEPES. On the day of the assay, 50 μl of staining buffer (HBSS containing 1% FCS, 20 mM HEPES, NaHCO3: 0.375 g/l, 5 mM probenecid (Sigma) and 3 μM of the fluorescent calcium indicator fluo-4 AM (1 mM stock solution in DMSO, containing 10% pluronic) is added to each well. The 384-well cell-plates are incubated for 50 min at 37° C. in 5% CO2 followed by equilibration at r.t. for 30-120 min before measurement.
(§4) Within the Fluorescent Imaging Plate Reader (FLIPR Tetra, Molecular Devices), antagonists are added to the plate in a volume of 10 μl/well, incubated for 10 min and finally 10 μl/well of agonist is added. Fluorescence is measured for each well at 1 second intervals, and the height of each fluorescence peak is compared to the height of the fluorescence peak induced by 3 nM orexin-A with vehicle in place of antagonist. For each antagonist, the IC50 value (the concentration of compound needed to inhibit 50% of the agonistic response) is determined and may be normalized using the obtained IC50 value of a on-plate reference compound. Optimized conditions were achieved by adjustment of pipetting speed and cell splitting regime. The calculated IC50 values of the compounds may fluctuate depending on the daily cellular assay performance. Fluctuations of this kind are known to those skilled in the art.

Assay [5] has as its target T2, human orexin-2 receptor (Homo sapiens, UniProt O43614).
T2 construct: expressed in transfected cells; host or cells: Chinese hamster ovary (CHO) cells, grown under G418 selection
T2 sequence (O43614 1-444): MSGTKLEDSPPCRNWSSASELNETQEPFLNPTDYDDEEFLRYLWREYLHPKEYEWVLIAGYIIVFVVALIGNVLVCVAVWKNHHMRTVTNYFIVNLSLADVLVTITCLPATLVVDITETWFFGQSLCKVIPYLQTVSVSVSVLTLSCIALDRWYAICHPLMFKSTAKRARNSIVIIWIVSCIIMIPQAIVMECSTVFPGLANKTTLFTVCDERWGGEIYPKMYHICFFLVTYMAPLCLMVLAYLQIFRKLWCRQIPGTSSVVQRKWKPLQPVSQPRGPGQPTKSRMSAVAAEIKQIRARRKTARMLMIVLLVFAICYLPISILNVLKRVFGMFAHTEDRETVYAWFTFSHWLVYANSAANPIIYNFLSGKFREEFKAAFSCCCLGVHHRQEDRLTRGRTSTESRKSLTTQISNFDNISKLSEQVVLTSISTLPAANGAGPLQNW
Kind of assay: FLIPR calcium assay, orexin receptor antagonistic activity, CHO cells expressing the human orexin-2 receptor. The settings on record: 3 nM orexin-A as agonist, some values geometric mean of n = 2 or 3, read-out: OX2 IC50. Format: cell-based. As for the experimental part:
as §1, §2, §3, §4

The structures appear in SMILES notation.

What is called IC50 is the concentration at which inhibition is half-maximal.

With `CNC(=O)[C@@H](c1ccccc1)N1CCc2cc(OC)c(OC)cc2[C@@H]1CCc1ccc(C(F)(F)F)cc1` [(2R)-2-{(1S)-6,7-dimethoxy-1-[2-(4-trifluoromethyl-phenyl)-ethyl]-3,4-dihydro-1H-isoquinolin-2-yl}-N-methyl-2-phenyl-acetamide], in assay [1], the “alertness, characterized by active wake and locomotion” value is on record as “decrease alertness”; the “time spent in both REM and NREM sleep” value is reported as “dose-dependently increase”. The memory function result in assay [2] was “enhance memory function”. For the same compound, in assay [3], the “activity in a rat model of post-traumatic stress disorder” value was “active”.

In the case of `COc1ccc(Cn2nccc2NC(=O)CSc2nnnn2-c2cccc(C)c2C)cc1` [Example 1, 2-[1-(2,3-Dimethyl-phenyl)-1H-tetrazol-5-ylsulfanyl]-N-[2-(4-methoxy-benzyl)-2H-pyrazol-3-yl]-acetamide], the IC50 in assay [4] is 32 nM; in assay [5], 5 nM.

`COc1ccc(Cn2nccc2NC(=O)CSc2nnnn2-c2cccc(C)c2C)cc1C` [Example 2, 2-[1-(2,3-Dimethyl-phenyl)-1H-tetrazol-5-ylsulfanyl]-N-[2-(4-methoxy-3-methyl-benzyl)-2H-pyrazol-3-yl]-acetamide]: the results for the IC50 in assay [4] and in assay [5] were 42 nM and 25 nM, respectively.

Turning to `COc1ccc(Cn2nccc2NC(=O)CSc2nnnn2-c2cccc(C)c2C)cc1OC` [Example 10, N-[2-(3,4-Dimethoxy-benzyl)-2H-pyrazol-3-yl]-2-[1-(2,3-dimethyl-phenyl)-1H-tetrazol-5-ylsulfanyl]-acetamide], the figures for the IC50 in assay [4] and in assay [5] were 61 nM and 89 nM, respectively.

Take `Cc1ccccc1Cn1nccc1NC(=O)CSc1nnnn1-c1cccc(C)c1C` [Example 22, 2-[1-(2,3-Dimethyl-phenyl)-1H-tetrazol-5-ylsulfanyl]-N-[2-(2-methyl-benzyl)-2H-pyrazol-3-yl]-acetamide]: the IC50 in assay [4] is 48 nM; in assay [5], 115 nM.

With `COc1ccc(Cn2nccc2NC(=O)CSc2nnnn2-c2cc(C)ccc2C)cc1` [Example 46, 2-[1-(2,5-Dimethyl-phenyl)-1H-tetrazol-5-ylsulfanyl]-N-[2-(4-methoxy-benzyl)-2H-pyrazol-3-yl]-acetamide], the results for the IC50 in assay [4] and in assay [5] were 11 nM and 6 nM, respectively.

Regarding `COc1ccc(-n2nnnc2SCC(=O)Nc2ccnn2Cc2ccc3c(c2)OCO3)c(OC)c1` [Example 62, N-(2-Benzo[1,3]dioxol-5-ylmethyl-2H-pyrazol-3-yl)-2-[1-(2,4-dimethoxy-phenyl)-1H-tetrazol-5-ylsulfanyl]-acetamide], the results for the IC50 in assay [4] and in assay [5] were 3440 nM and 1800 nM, respectively.

Turning to `Cc1cccc(-n2nnnc2SCC(=O)Nc2ccnn2CC2CC2)c1C` [Example 76, N-(2-Cyclopropylmethyl-2H-pyrazol-3-yl)-2-[1-(2,3-dimethyl-phenyl)-1H-tetrazol-5-ylsulfanyl]-acetamide], the IC50 turned out to be 363 nM in assay [4] and 165 nM in assay [5].

For `CCC(C)Cn1nccc1NC(=O)CSc1nnnn1-c1cccc(C)c1C` (stereo not drawn) [Example 77, 2-[1-(2,3-Dimethyl-phenyl)-1H-tetrazol-5-ylsulfanyl]-N-[2-(2-methyl-butyl)-2H-pyrazol-3-yl]-acetamide], the values for the IC50 in assay [4] and in assay [5] were 295 nM and 613 nM, respectively.

Consider `Cc1cccc(-n2nnnc2SCC(=O)Nc2ccnn2CCCc2ccc(OC(F)(F)F)c(F)c2)c1C` [Example 85, 2-[1-(2,3-Dimethyl-phenyl)-1H-tetrazol-5-ylsulfanyl]-N-{2-[3-(3-fluoro-4-trifluoromethoxy-phenyl)-propyl]-2H-pyrazol-3-yl}-acetamide], for which the figures for the IC50 in assay [4] and in assay [5] were 1810 nM and 146 nM, respectively.

In the case of `Cc1ccc(C)c(-n2nnnc2SCC(=O)Nc2ccnn2CCc2ccccc2)c1` [Example 89, 2-[1-(2,5-Dimethyl-phenyl)-1H-tetrazol-5-ylsulfanyl]-N-(2-phenethyl-2H-pyrazol-3-yl)-acetamide], the IC50 in assay [4] came to 44 nM; in assay [5] it was 47 nM.

On to `COc1ccc(Cn2nccc2NC(=O)CCc2nnnn2-c2cccc3ccccc23)cc1` [Example 115, N-[2-(4-Methoxy-benzyl)-2H-pyrazol-3-yl]-3-(1-naphthalen-1-yl-1H-tetrazol-5-yl)-propionamide], for which the half-inhibitory concentration (IC50) in assay [4] came to 25 nM; in assay [5], 41 nM.

On to `COc1ccc(-n2nccc2NC(=O)CCc2nnnn2-c2c(C)cc(C)cc2C)cc1` [Example 139, N-[2-(4-Methoxy-phenyl)-2H-pyrazol-3-yl]-3-[1-(2,4,6-trimethyl-phenyl)-1H-tetrazol-5-yl]-propionamide], for which the IC50 amounted to 796 nM in assay [4] and 530 nM in assay [5].

For `Cc1cccc(-n2nnnc2SCC(=O)Nc2ccnn2-c2ccc(Oc3ccccc3)cc2)c1C` [Example 141, 2-[1-(2,3-Dimethyl-phenyl)-1H-tetrazol-5-ylsulfanyl]-N-[2-(4-phenoxy-phenyl)-2H-pyrazol-3-yl]-acetamide], the half-maximal inhibitory concentration (IC50) in assay [4] was determined as 85 nM; in assay [5], 19 nM.

In the case of `COc1ccc(-n2nccc2NC(=O)CSc2nnnn2-c2cccc(C)c2C)cn1` [Example 147, 2-[1-(2,3-Dimethyl-phenyl)-1H-tetrazol-5-ylsulfanyl]-N-[2-(6-methoxy-pyridin-3-yl)-2H-pyrazol-3-yl]-acetamide], the IC50 in assay [4] came out at 47 nM; in assay [5] it was 8300 nM.

On to `COc1ccc(-n2nccc2NC(=O)CSc2nnnn2-c2c(Cl)cccc2Cl)cc1` [Example 152, 2-[1-(2,6-Dichloro-phenyl)-1H-tetrazol-5-ylsulfanyl]-N-[2-(4-methoxy-phenyl)-2H-pyrazol-3-yl]-acetamide], for which the IC50 stood at 63 nM in assay [4] and 32 nM in assay [5].

Consider `Cc1cc(NC(=O)CSc2nnnn2-c2cccc(C)c2C)n(-c2ccccc2)n1` [Example 154, 2-[1-(2,3-Dimethyl-phenyl)-1H-tetrazol-5-ylsulfanyl]-N-(5-methyl-2-phenyl-2H-pyrazol-3-yl)-acetamide], for which the IC50 in assay [4] was 7250 nM; in assay [5] it was 654 nM.

Source of the values: US20110086889A1, “TETRAZOLE COMPOUNDS AS OREXIN RECEPTOR ANTAGONISTS” (priority 2009, published 2011).
